Source: ChEMBL document CHEMBL1201862, “PubChem BioAssay data set” (2004)
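Cultured in 96-well plates, cells were exposed to test compound for 48 hours across five concentrations. At the GI50, growth is halved.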 The source made the active and inactive calls. No stated cut-off is given here; in the data, active = GI50 up to about 1.1 µM and inactive = higher.

What was measured:
Experiment in all cases: inhibition of tumour cell growth, NCI panel, 48 h
IGROV-1 = tested on: IGROV-1
SR = tested on: SR
SF-539 = tested on: SF-539
OVCAR-8 = tested on: OVCAR-8
M14 = tested on: M14
NCI-H23 = tested on: NCI-H23
HCT-116 = tested on: HCT-116
SNB-19 = tested on: SNB-19
SK-MEL-2 = tested on: SK-MEL-2
T47D = tested on: T47D
COLO 205 = tested on: COLO 205
UACC-257 = tested on: UACC-257
A549 = tested on: A549
LXFL 529 = tested on: LXFL 529
MDA-MB-231 = tested on: MDA-MB-231
A498 = tested on: A498
HT-29 = tested on: HT-29
U-251 = tested on: U-251
MDA-N = tested on: MDA-N
SN12C = tested on: SN12C

Structure (SMILES)	GI50 (IGROV-1)	GI50 (SR)	GI50 (SF-539)	GI50 (OVCAR-8)	GI50 (M14)	GI50 (NCI-H23)	GI50 (HCT-116)	GI50 (SNB-19)	GI50 (SK-MEL-2)	GI50 (T47D)	GI50 (COLO 205)	GI50 (UACC-257)	GI50 (A549)	GI50 (LXFL 529)	GI50 (MDA-MB-231)	GI50 (A498)	GI50 (HT-29)	GI50 (U-251)	GI50 (MDA-N)	GI50 (SN12C)
C/C(=N\NC(=S)N1CCC1)c1ccccn1	0.01 µM (active)	0.01 µM (active)	0.114 µM (active)	0.01 µM (active)	0.01 µM (active)	0.01 µM (active)	0.01 µM (active)	0.261 µM (active)	1.97 µM (inactive)	0.00137 µM (active)	0.01 µM (active)	< 0.0229 µM (active)	0.0246 µM (active)	0.01 µM (active)	0.0155 µM (active)	0.446 µM (active)	0.01 µM (active)	0.01 µM (active)	0.0682 µM (active)	–
COC(=O)CC(NC(=O)OCc1ccccc1)C(C(C)=O)C(=O)OCc1ccccc1 (configuration not stated)	> 31.6 µM (inactive)	> 100 µM (inactive)	> 31.6 µM (inactive)	> 31.6 µM (inactive)	> 31.6 µM (inactive)	> 31.6 µM (inactive)	> 31.6 µM (inactive)	> 10 µM (inactive)	> 10 µM (inactive)	–	> 31.6 µM (inactive)	> 31.6 µM (inactive)	> 31.6 µM (inactive)	5.48 µM (inactive)	–	> 31.6 µM (inactive)	> 10 µM (inactive)	> 31.6 µM (inactive)	–	> 31.6 µM (inactive)
CCCCCCCCCCCCCC1CCC(CC)N1 (configuration not stated)	20.9 µM (inactive)	18.9 µM (inactive)	17.6 µM (inactive)	20 µM (inactive)	17.9 µM (inactive)	18.6 µM (inactive)	15.6 µM (inactive)	16.9 µM (inactive)	21.8 µM (inactive)	–	15.1 µM (inactive)	20.7 µM (inactive)	20.8 µM (inactive)	18.2 µM (inactive)	–	21.4 µM (inactive)	5.81 µM (inactive)	7.41 µM (inactive)	–	11.3 µM (inactive)
Cc1c2cc[n+](C)cc2c(C)c2c1oc1ccccc12	4.74 µM (inactive)	4.85 µM (inactive)	2.24 µM (inactive)	1.67 µM (inactive)	14.6 µM (inactive)	2.24 µM (inactive)	6.43 µM (inactive)	0.893 µM (active)	4.13 µM (inactive)	–	3.51 µM (inactive)	4.29 µM (inactive)	1.95 µM (inactive)	1.54 µM (inactive)	12.9 µM (inactive)	42.9 µM (inactive)	14.4 µM (inactive)	0.652 µM (active)	11 µM (inactive)	0.475 µM (active)
